Source: US5661165A, “((4-phenyl-1,2,5-thiadiazol-3-yl)oxy)methyl ester thiocyanic acid compounds, compositions containing them and their use as antimicrobial and marine antifouling agents” (The Dow Chemical Company, priority 1996, dated 1997)
Values after ≈ are worked out from the molar mass of the structure shown. Read-outs that look alike come from different tables or passages of the source.

Assays:
Fusarium oxysporum (Fo) = assay: MIC against yeast/fungi (malt yeast agar); type: cell-based, Fusarium oxysporum ATCC 48112; conditions: 30° C., fungi read after 72 h, read-out: Minimum Inhibitory Concentration, Fo
Procedure: (§1) The antimicrobial activity of the compounds of the present invention is set forth as the minimum inhibitory concentration (MIC) for the active compounds and is determined for nine (9) bacteria, using nutrient agar, and seven (7) yeast and fungi, using malt yeast agar. This determination is conducted using a one percent solution of the test compound prepared in a mixture of acetone and water.
(§2) Malt yeast agar is prepared by adding 3 g yeast extract and 45 g malt agar per liter of deionized water. The specific agar is dispensed in 30 mL aliquots into 25×200 mm test tubes, capped and autoclaved for 15 minutes at 115° C.
(§3) The test tubes containing the agar are cooled in a water bath until the temperature of the agar is 48° C. Then, an appropriate amount of the one percent solution of the test compound is added (except in the controls where no compound is added) to the respective test tubes so that the final concentrations are 500, 250, 100, 50, 25, 10, 5, 2.5, 1.0 and zero parts per million of the test compound in the agar, thus having a known concentration of test compound dispersed therein. The contents of the test tubes are then transferred to respective petri plates. After drying for 24 hours, the petri plates containing nutrient agar are inoculated with bacteria and those containing malt yeast agar are inoculated with yeast and fungi.
(§4) The inoculation with the yeast and fungi is accomplished as follows. Cultures of yeast and fungi are incubated for seven days on malt yeast agar at 30° C. These cultures are used to prepare suspensions by the following procedure. A suspension of each organism is prepared by adding 10 mL of sterile saline and 10 microliters of octylphenoxy polyethoxy ethanol to the agar slant of yeast or fungi. The sterile saline/octylphenoxy polyethoxy ethanol solution is then agitated with a sterile swab to suspend the microorganism grown on the slant. Each resulting suspension is diluted into sterile saline (1 part suspension to 9 parts sterile saline). Aliquots of these dilutions are placed in individual wells of Steer's Replicator and petri plates inoculated as previously described. The petri plates are incubated at 30° C. and read after 48 hours for yeast and 72 hours for fungi.
(§5) Table I lists the bacteria, yeast and fungi used in the MIC test described above along with their respective American Type Culture Collection (ATCC) identification numbers.

Proteus vulgaris (PV) = assay: MIC against bacteria (nutrient agar); type: cell-based, Proteus vulgaris ATCC 881; conditions: 30° C., 48 h, read-out: Minimum Inhibitory Concentration, Pv
[1] = test system: Salmonella choleraesuis (Sc); assay: MIC against bacteria (nutrient agar); type: cell-based, Salmonella choleraesuis ATCC 10708; conditions: Salmonella enterica, 30° C., 48 h, read-out: Minimum Inhibitory Concentration, Sc
[2] = test system: Aureobasidium pullulan (Ap); assay: MIC against yeast/fungi (malt yeast agar); type: cell-based, Aureobasidium pullulan ATCC 16622; conditions: 30° C., yeast 48 h / fungi 72 h, read-out: Minimum Inhibitory Concentration, Ap
Procedure: as §1, §2, §3, §4, §5

[3] = test system: Saccharomyces cerevisiae (Sc); assay: MIC against yeast/fungi (malt yeast agar); type: cell-based, Saccharomyces cerevisiae ATCC 4105; conditions: 30° C., yeast read after 48 h, read-out: Minimum Inhibitory Concentration, Sc
Procedure: as §1, §2, §3, §4, §5

[4] = test system: Psuedomonas aeruginosa (PRD-10); assay: MIC against bacteria (nutrient agar); type: cell-based, Psuedomonas aeruginosa ATCC 15442; conditions: 30° C., 48 h, read-out: Minimum Inhibitory Concentration, PRD
[5] = test system: Staphylococcus aureus (Sa); assay: MIC against bacteria (nutrient agar); type: cell-based, Staphylococcus aureus ATCC 6538; conditions: 30° C., 48 h, read-out: Minimum Inhibitory Concentration, Sa
Trichoderma viride (Tv) = assay: MIC against yeast/fungi (malt yeast agar); type: cell-based, Trichoderma viride ATCC 8678; conditions: 30° C., fungi read after 72 h, read-out: Minimum Inhibitory Concentration, Tv
Procedure: as §1, §2, §3, §4, §5

Candida albicans (Ca) = assay: MIC against yeast/fungi (malt yeast agar); type: cell-based, Candida albicans ATCC 10231; conditions: 30° C., yeast read after 48 h, read-out: Minimum Inhibitory Concentration, Ca
Procedure: as §1, §2, §3, §4, §5

[6] = test system: Psuedomonas aeruginosa (Pa); assay: MIC against bacteria (nutrient agar); type: cell-based, Psuedomonas aeruginosa ATCC 10145; conditions: 30° C., 48 h, read-out: Minimum Inhibitory Concentration, Pa
Procedure: as §1
Nutrient agar is prepared at pH 6.8, representing a neutral medium, and at pH 8.2, representing an alkaline medium. The nutrient agars are prepared by adding 23 g of nutrient agar to one-liter of deionized water. In addition, the alkaline medium is prepared by adjusting a 0.04M solution of N-[tris-(hydroxymethyl)methyl]-glycine buffered deionized water with concentrated sodium hydroxide to a pH of 8.5.
as §3
The inoculation with bacteria is accomplished by using the following procedure. Twenty-four hour-cultures of each of the bacteria are prepared by incubating the respective bacteria in tubes containing nutrient broth for 24 hours at 30° C. in a shaker. Dilutions of each of the 24 hour-cultures are made so that nine separate suspensions (one for each of the nine test bacteria) are made, each containing 10^8 colony forming units (CFU) per mL of suspension of a particular bacteria. Aliquots of 0.3 mL of each of the bacterial suspensions are used to fill the individual wells of Steer's Replicator. For each microbial suspension, 0.3 mL was used to fill three wells (i.e., three wells of 0.3 mL each) so that for the nine different bacteria, 27 wells are filled. The Steer's Replicator is then used to inoculate both the neutral and alkaline pH nutrient agar petri plates.
The inoculated petri plates are incubated at 30° C. for 48 hours and then read to determine if the test compound which is incorporated into the agar prevented growth of the respective bacteria.
as §5

Aperigillus niger (An) = assay: MIC against yeast/fungi (malt yeast agar); type: cell-based, Aperigillus niger ATCC 16404; conditions: 30° C., fungi read after 72 h, read-out: Minimum Inhibitory Concentration, An
Procedure: as §1, §2, §3, §4, §5

Bacillus subtilis (Bs) = assay: MIC against bacteria (nutrient agar); type: cell-based, Bacillus subtilis ATCC 8473; conditions: 30° C., 48 h, read-out: Minimum Inhibitory Concentration, Bs
[7] = test system: Enterobacter aerogenes (Ea); assay: MIC against bacteria (nutrient agar); type: cell-based, Enterobacter aerogenes ATCC 13048; conditions: Klebsiella aerogenes, 30° C., 48 h, read-out: Minimum Inhibitory Concentration, Ea
[8] = test system: Pencillium chrysogenum (Pc); assay: MIC against yeast/fungi (malt yeast agar); type: cell-based, Pencillium chrysogenum ATCC 9480; conditions: 30° C., fungi read after 72 h, read-out: Minimum Inhibitory Concentration, Pc
Procedure: as §1, §2, §3, §4, §5

[9] = test system: Klebsiella pneumoniae (Kp); assay: MIC against bacteria (nutrient agar); type: cell-based, Klebsiella pneumoniae ATCC 8308; conditions: 30° C., 48 h, read-out: Minimum Inhibitory Concentration, Kp
Escherichia coli (Ec) = assay: MIC against bacteria (nutrient agar); type: cell-based, Escherichia coli ATCC 11229; conditions: 30° C., 48 h, read-out: Minimum Inhibitory Concentration, Ec

SMILES	MIC (Fusarium oxysporum (Fo)) [µg/mL]	MIC (Proteus vulgaris (PV); pH 6.8, nutrient agar) [µg/mL]	MIC (Proteus vulgaris (PV); pH 8.2, nutrient agar) [µg/mL]	MIC ([1]; pH 6.8, nutrient agar) [µg/mL]	MIC ([1]; pH 8.2, nutrient agar) [µg/mL]	MIC [2] [µg/mL]	MIC [3] [µg/mL]	MIC ([4]; pH 6.8, nutrient agar) [µg/mL]	MIC ([4]; pH 8.2, nutrient agar) [µg/mL]	MIC ([5]; pH 6.8, nutrient agar) [µg/mL]	MIC ([5]; pH 8.2, nutrient agar) [µg/mL]	MIC (Trichoderma viride (Tv)) [µg/mL]	MIC (Candida albicans (Ca)) [µg/mL]	MIC ([6]; pH 6.8, nutrient agar) [µg/mL]	MIC ([6]; pH 8.2, nutrient agar) [µg/mL]	MIC (Aperigillus niger (An)) [µg/mL]	MIC (Bacillus subtilis (Bs); pH 6.8, nutrient agar) [µg/mL]	MIC (Bacillus subtilis (Bs); pH 8.2, nutrient agar) [µg/mL]	MIC ([7]; pH 6.8, nutrient agar) [µg/mL]	MIC ([7]; pH 8.2, nutrient agar) [µg/mL]	further results
N#CSCOc1nsnc1-c1cccc(Cl)c1 [II, ((4-(3-Chlorophenyl)-1,2,5-thiadiazol-3-yl)oxy)methyl ester thiocyanic acid]	10 (≈ 35.2 µM)	> 500	500 (≈ 1760 µM)	500 (≈ 1760 µM)	> 500	2.5 (≈ 8.81 µM)	< 1	> 500	> 500	< 10	< 10	500 (≈ 1760 µM)	5 (≈ 17.6 µM)	> 500	> 500	2.5 (≈ 8.81 µM)	< 10	< 10	> 500	500 (≈ 1760 µM)	MIC [8]: < 1 µg/mL; MIC ([9]; pH 6.8, nutrient agar): 500 µg/mL (≈ 1760 µM); MIC ([9]; pH 8.2, nutrient agar): 500 µg/mL (≈ 1760 µM); MIC (Escherichia coli (Ec); pH 6.8, nutrient agar): 500 µg/mL (≈ 1760 µM); MIC (Escherichia coli (Ec); pH 8.2, nutrient agar): > 500 µg/mL
N#CSCOc1nsnc1-c1cccc(F)c1 [III, ((4(3Fluorophenyl)-1,2,5-thiadiazol-3-yl)oxy)methyl ester thiocyanic acid]	100 (≈ 374 µM)	> 500	500 (≈ 1870 µM)	500 (≈ 1870 µM)	> 500	< 1	< 1	> 500	> 500	< 10	25 (≈ 93.5 µM)	500 (≈ 1870 µM)	5 (≈ 18.7 µM)	> 500	> 500	< 1	< 10	< 10	> 500	500 (≈ 1870 µM)	MIC [8]: < 1 µg/mL; MIC ([9]; pH 6.8, nutrient agar): 500 µg/mL (≈ 1870 µM); MIC ([9]; pH 8.2, nutrient agar): 500 µg/mL (≈ 1870 µM); MIC (Escherichia coli (Ec); pH 6.8, nutrient agar): 500 µg/mL (≈ 1870 µM); MIC (Escherichia coli (Ec); pH 8.2, nutrient agar): > 500 µg/mL
N#CSCOc1nsnc1-c1ccc(F)cc1 [IV, ((4(4-Fluorophenyl)-1,2,5-thiadiazol-3-yl)oxy)methyl ester thiocyanic acid]	5 (≈ 18.7 µM)	> 500	500 (≈ 1870 µM)	500 (≈ 1870 µM)	> 500	2.5 (≈ 9.35 µM)	2.5 (≈ 9.35 µM)	> 500	> 500	< 10	25 (≈ 93.5 µM)	500 (≈ 1870 µM)	5 (≈ 18.7 µM)	> 500	> 500	2.5 (≈ 9.35 µM)	< 10	< 10	> 500	500 (≈ 1870 µM)	MIC [8]: < 1 µg/mL; MIC ([9]; pH 6.8, nutrient agar): 500 µg/mL (≈ 1870 µM); MIC ([9]; pH 8.2, nutrient agar): 500 µg/mL (≈ 1870 µM); MIC (Escherichia coli (Ec); pH 6.8, nutrient agar): 500 µg/mL (≈ 1870 µM); MIC (Escherichia coli (Ec); pH 8.2, nutrient agar): > 500 µg/mL
